Patent US20260217701A1, “SELECTIVE BET INHIBITORS AND USES THEREOF” (Tay Therapeutics Limited, priority 2022, published 2026)
Where two headings read alike, the source gives them in different places.

Test: Dog PK study #3 (Compound A PO once daily 5 days, 5/10/20 mg/kg; PK, body weight, hematology)
Assay type: in vivo, beagle dogs
Conditions: for Tmax / AUC(0-inf) / Cmax / MRT inf / MRT last / half-life / AUC(0-t): male, beagle, dog, plasma, po; for AUC(0-inf): read-out: AUC0-inf; for Cmax: read-out: Cmax; for MRT inf: read-out: MRT0-inf; for MRT last: read-out: MRT0-last; for half-life: read-out: T½ (converted)
Protocol: For the third dog pharmacokinetic study, three solutions of different concentrations of Compound A were prepared in 5% DMSO/15% PEG-400/80% (10% VE-TPGS) as outlined in Table 2E. The Compound A solutions were administered to animals orally (PO) once daily over a five-day period. Body weight was recorded prior to dosing, and detailed clinical observations were made prior to dosing and throughout the study, as needed.
Animals were divided into Day 1 and Day 5 sample collection groups, with animals in the Day 1 collection group having blood samples taken prior to dosing and at 0.25, 0.5, 1, 2, 4, 8, and 24 hours after dosing on day 1. Animals in the Day 5 collection group having blood samples taken prior to dosing and at 0.25, 0.5, 1, 2, 4, 8, and 24 hours after dosing on day 5. Study groups are outlined in Table 3D.
Blood samples (~0.3 mL) were collected on day according to the following schedule (0.25, 0.5, 1, 2, 4, 8, and 24 h) after day 5 administration of Compound A by venipuncture of peripheral veins except for the dosing vein, and EDTA-K2 was used as anticoagulant. Within 30 minutes of collection, the samples were centrifuged at approximately 2000 times g-force for 10 minutes at 4° C. to obtain blood plasma. The plasma samples were immediately divided into two aliquots (~75 μL each), transferred to a cryogenic vial, and stored in a freezer at −75±15° C. prior to analysis.
The concentration of Compound A in the blood plasma was determined through LC-MS as previously described. Briefly, the experiments were conducted on a DMPK-LCMS-14-SMBA Triple Quad 6500 Plus instrument with an ACQUITY UPLC BEH C18 1.7 μm (50×2.1 mm) column. The matrix was male beagle dog plasma potassium (K2) EDTA A gradient of 95% water (0.1% formic acid and 2 mM HCOONH4)/95% acetonitrile (0.1% formic acid and 2 mM HCOONH4) was used as the mobile phase. The sample flow rate was 0.6 mL/min.
The samples were then vortex-mixed for 10 minutes at 800 rpm and centrifuged for 15 minutes at 3220×g at 4° C. 50 μL aliquots of supernatant were transferred to a clean 96-well plate and centrifuged for 5 minutes at 3220×g at 4° C. Samples were then injected into the LC/MS/MS system for quantitative analysis.
The gathered data were used for pharmacokinetic calculations using T1/2, CO, AUClast, AUCinf, MRTinf, Cl, Vss, and Number of Points for Regression as parameters.
The cell composition (hematology) of blood samples was analyzed at day 5. Analyses identified the total number of white blood cells, neutrophils, lymphocytes, monocytes, eosinophils, basophils, and platelets in collected samples.

[1] = 5 mg/kg, Day 1, 5 mg/kg dose PO, individual animals
[2] = 5 mg/kg, Day 1, 5 mg/kg dose PO, mean
[3] = 5 mg/kg, Day 5, 5 mg/kg dose PO, individual animals
[4] = 5 mg/kg, Day 5, 5 mg/kg dose PO, mean
[5] = 10 mg/kg, Day 1, 10 mg/kg dose PO, individual animals
[6] = 10 mg/kg, Day 1, 10 mg/kg dose PO, mean
[7] = 10 mg/kg, Day 5, 10 mg/kg dose PO, individual animals
[8] = 10 mg/kg, Day 5, 10 mg/kg dose PO, mean
[9] = 20 mg/kg, Day 1, 20 mg/kg dose PO, individual animals
[10] = 20 mg/kg, Day 1, 20 mg/kg dose PO, mean
[11] = 20 mg/kg, Day 5, 20 mg/kg dose PO, individual animals
[12] = 20 mg/kg, Day 5, 20 mg/kg dose PO, mean
[13] = single PO administration Day 1, 10.0 over 5.00 mg/kg, dose ratio 2.00
[14] = single PO administration Day 1, 20.0 over 5.00 mg/kg, dose ratio 4.00
[15] = single PO administration Day 1, 20.0 over 10.0 mg/kg, dose ratio 2.00

Q: With `Cn1cc(-c2ccccc2)c(-c2cn(C)c(=O)c3[nH]c(-c4cnn(C(F)(F)F)c4)cc23)cc1=O` [Compound A, 6-methyl-4-(1-methyl-2-oxo-5-phenyl-1,2-dihydropyridin-4-yl)-2-(1-(trifluoromethyl)-1H-pyrazol-4-yl)-1,6-dihydro-7H-pyrrolo[2,3-c]pyridin-7-one] as the molecule, how does the Tmax [1] read?
A: 8 h

Q: And the AUC(0-inf) [1]?
A: 7.88 µg·h/mL

Q: What about the Cmax [1] of the same molecule?
A: 785 ng/mL

Q: What about the MRT inf [1] of the same molecule?
A: 9.3 h

Q: And the MRT last [1]?
A: 9.77 h

Q: And the half-life [1]?
A: 338 min

Q: What about the AUC(0-t) [2] of the same molecule?
A: 9500 ng·h/mL

Q: What about the Tmax [2] of the same molecule?
A: 6 h

Q: What about the Cmax [2] of the same molecule?
A: 736 ng/mL

Q: And the MRT last [2]?
A: 8.8 h

Q: What about the AUC(0-t) [3] of the same molecule?
A: 17800 ng·h/mL

Q: What about the Tmax [3] of the same molecule?
A: 2 h

Q: And the Cmax [3]?
A: 1270 ng/mL

Q: What about the MRT inf [3] of the same molecule?
A: 20 h

Q: And the MRT last [3]?
A: 9.78 h

Q: What about the AUC(0-t) [4] of the same molecule?
A: 14500 ng·h/mL

Q: And the Tmax [4]?
A: 2 h

Q: And the AUC(0-inf) [4]?
A: 18.9 µg·h/mL

Q: And the Cmax [4]?
A: 1160 ng/mL

Q: And the MRT inf [4]?
A: 15.1 h

Q: And the MRT last [4]?
A: 8.93 h

Q: What about the half-life [4] of the same molecule?
A: 598 min

Q: And the AUC(0-t) [5]?
A: 19500 ng·h/mL

Q: And the Tmax [5]?
A: 4 h

Q: And the AUC(0-inf) [5]?
A: 20.5 µg·h/mL

Q: What about the Cmax [5] of the same molecule?
A: 2010 ng/mL

Q: And the MRT inf [5]?
A: 8.8 h

Q: What about the MRT last [5] of the same molecule?
A: 7.59 h

Q: And the half-life [5]?
A: 314 min

Q: And the AUC(0-t) [6]?
A: 17500 ng·h/mL

Q: And the Tmax [6]?
A: 3 h

Q: And the AUC(0-inf) [6]?
A: 18.6 µg·h/mL

Q: And the Cmax [6]?
A: 1730 ng/mL

Q: And the MRT inf [6]?
A: 9.17 h

Q: What about the MRT last [6] of the same molecule?
A: 7.72 h

Q: What about the half-life [6] of the same molecule?
A: 336 min

Q: And the AUC(0-t) [7]?
A: 20500 ng·h/mL

Q: And the Tmax [7]?
A: 2 h

Q: What about the AUC(0-inf) [7] of the same molecule?
A: 23 µg·h/mL

Q: And the Cmax [7]?
A: 1740 ng/mL

Q: What about the MRT inf [7] of the same molecule?
A: 11.3 h

Q: What about the MRT last [7] of the same molecule?
A: 8.5 h

Q: And the half-life [7]?
A: 438 min

Q: And the AUC(0-t) [8]?
A: 28300 ng·h/mL

Q: What about the Tmax [8] of the same molecule?
A: 2 h

Q: And the AUC(0-inf) [8]?
A: 34.1 µg·h/mL

Q: And the Cmax [8]?
A: 2260 ng/mL

Q: And the MRT inf [8]?
A: 13.4 h

Q: What about the MRT last [8] of the same molecule?
A: 8.95 h

Q: And the half-life [8]?
A: 528 min

Q: What about the AUC(0-t) [9] of the same molecule?
A: 49400 ng·h/mL

Q: And the Tmax [9]?
A: 4 h

Q: What about the Cmax [9] of the same molecule?
A: 4330 ng/mL

Q: And the MRT inf [9]?
A: 9.65 h

Q: And the MRT last [9]?
A: 8.19 h

Q: And the AUC(0-t) [10]?
A: 67900 ng·h/mL

Q: And the Tmax [10]?
A: 4 h

Q: And the AUC(0-inf) [10]?
A: 84.7 µg·h/mL

Q: What about the Cmax [10] of the same molecule?
A: 5160 ng/mL

Q: What about the MRT inf [10] of the same molecule?
A: 13.9 h

Q: And the MRT last [10]?
A: 9.15 h

Q: What about the half-life [10] of the same molecule?
A: 520 min

Q: What about the Tmax [11] of the same molecule?
A: 2 h

Q: What about the Cmax [11] of the same molecule?
A: 3510 ng/mL

Q: And the AUC(0-t) [12]?
A: 30200 ng·h/mL

Q: And the Tmax [12]?
A: 2 h

Q: What about the AUC(0-inf) [12] of the same molecule?
A: 1070 µg·h/mL

Q: And the Cmax [12]?
A: 2860 ng/mL

Q: What about the MRT inf [12] of the same molecule?
A: 483 h

Q: What about the MRT last [12] of the same molecule?
A: 6.3 h

Q: What about the half-life [12] of the same molecule?
A: 20000 min

Q: And the mortality (one animal of the highest dose, 5 day PO study)?
A: found dead on day 6

Q: And the “AUC0-last Ratio (dose proportionality)” value [13]?
A: 1.85

Q: And the “Cmax Ratio (dose proportionality)” value [13]?
A: 2.35

Q: And the “AUC0-last Ratio (dose proportionality)” value [14]?
A: 7.15

Q: And the “Cmax Ratio (dose proportionality)” value [14]?
A: 7.02

Q: What about the “AUC0-last Ratio (dose proportionality)” value [15] of the same molecule?
A: 3.87

Q: And the “Cmax Ratio (dose proportionality)” value [15]?
A: 2.99
